# Measurements as given in patent US20220177902A1, “LOW-METHANE RICE” (priority 2019, published 2022).
# Test system: methanogens
# Assay: Methanogen propagation upon fumarate treatment of rice (qPCR methanogen determination)
# Details: SUSIBA2 rice and Nipponbare rice treated with fumarate for two weeks (from Week 6 to Week 8), groups Mst, MET, Msc, MBT, MMB, Arc
# Protocol: FIG. 12. Response of methanogen propagation of different groups upon fumarate treatment for two weeks (from Week 6 to Week 8). Mst (Methanosaetaceae), MET (methanogens), Msc (Methanosarcinaceae), MBT (Methanobacteriales), MMB (Methanomicrobiales), Arc (archaea), and Met for Methanocella-specific.
# Quantitative PCR was performed for both methanogen determination and rice gene expression in the same way as described in Su et al. (2015).
# CRISPR/Cas technology was used to successfully delete the yin transcription factor (sucrose-response region) in the yin-yang system (Jin et al. (2017)) in rice to achieve larger panicles (FIG. 11). The increased panicle size meant that more carbon was reallocated to the panicles, which in turn led to less carbon to fumarate section from roots below ground.
compound,measurement,value
O=C(O)/C=C/C(=O)O [fumarate],Response of methanogen propagation of different groups upon fumarate treatment,all methanogen groups propagated
